We go through three compounds from patent US9688637B2, “3-amidobenzamides and uses thereof for increasing cellular levels of A3G and other A3 family members” (Northwestern University, priority 2014, dated 2017).

The test system of one series is 293T cells. In words: Cellular cytotoxicity by counting cells after 48 hrs with compound vs DMSO. Format: cell-based. The following applies: concentration at which cell death was seen; 48 hrs. As for the experimental part: To screen compounds that can boost A3G levels, 293T cells (25,000 cells per well in 96-well plate) stably expressing A3G-Luc protein or A3G-Luc/Vif proteins were plated. After 24 hrs post plating culture medium was replaced with 100 μl of new medium containing either DMSO as a control or various compounds (10 μM concentration). After 48 hrs of incubation with compounds culture medium was removed from each well and replaced with 100 μl of Britelite Plus luciferase assay substrate (PerkinElmer). Following 5 min. of incubation at room temperature, 75 μl of each cell lysate was transferred to a 96-well OptiPlate 96 (PerkinElmer) and luminescence was measured in a VICTOR X2 Multilabel Reader (PerkinElmer). Relative activity of compounds for their boosting capability A3G-Luc activity was calculated by plotting DMSO-treated A3G-Luc or A3G-Luc/Vif cells as 100%. Cellular cytotoxicity was measured by counting number of cells after 48 hrs of incubation with compounds compared to DMSO treated cells.

For series [1], the system named is Wild-type HIV-1. In words: A3G-mediated restriction of wild-type HIV-1; virus from 293T stably expressing A3G, TZM-bl readout. It counts as cell-based. The following applies: Human immunodeficiency virus 1, HEK-293T, read-out: A3G-mediated Restriction by Compounds on Wild-type HIV-1 (% of HIV replication relative to DMSO treated Control). How it is done:
(§1) To test the effect of compounds shown to boost A3G-Luc levels in our screening systems on inhibition of wild-type HIV-1 replication by A3G or A3F, 293T cell lines stably expressing A3G or A3F were plated (750,000 cells per well in 6-well plate). At 24 hrs post plating, 1.5 μg of a wild-type (Vif-positive) HIV-1 proviral vector, NL4.3, was transfected into the 293T stable cell lines expressing either A3G or A3F. At 4 hrs post transfection, either DMSO as a control or an individual compound from series described below was added into the culture medium at a 10 μM concentration. At 1 day post transfection, supernatant fluids containing viral particles were filtered through […] filter to remove cellular debris. To test the effect of compound on HIV-1 replication, TZM-bl indicator cells were plated at a density of 10,000 cells/well in a 96 well culture plate 24 hrs prior to infection. TZM-bl indicator cells express luciferase gene under the control of HIV LTR promoter and are routinely used to measure HIV-1 replication capability. On the day of infection, the culture medium was removed and the cells inoculated with equal amount of HIV-1 particles in triplicate with 100 μl of viral supernatants in culture medium containing 20 μg/ml DEAE-dextran. After 24 hrs of incubation, culture medium was removed from each well and replaced with 100 μl of Britelite Plus luciferase assay substrate. Following 5 min. of incubation at room temperature, 75 μl of each cell lysate was transferred to a 96-well OptiPlate 96 and luminescence was measured in a VICTOR X2 Multilabel Reader as described above. Relative infectivity was calculated by plotting luciferase activity from viral particle from DMSO treated A3G or A3F cell lines as 100%. We only tested effect A3F- or A3G mediated restriction of HIV-1 replication by compounds boosting luciferase activity by more than 160% compared to DMSO control sample.

Series [2] deals with Wild-type HIV-1. Nature of the series: A3F-mediated restriction of wild-type HIV-1; virus from 293T stably expressing A3F, TZM-bl readout. Format: cell-based. The following applies: Human immunodeficiency virus 1, HEK-293T, read-out: A3F-mediated Restriction by Compounds on Wild-type HIV-1 (% of HIV replication relative to DMSO treated Control). How it is done: as §1
A further series concerns the target T1, mutant Y124A A3G (Homo sapiens, UniProt Q9HC16, Y124A).
T1 construct: expressed in transfected cells; host or cells: 293T, transient transfection
In words: Steady state A3 protein level by immunoblot in transiently transfected 293T cells. It counts as cell-based. The following applies: 293T transiently transfected, immunoblot (FIG. 7). How it is done:
(§2) FIG. 7. 293T cells were transiently transfected with 400 ng of expression vectors for wild type A3G (A3G), a mutant A3G (A3G Y124A), and A3F (A3F) to test effect of NU52 treatment on steady state levels of the respective A3 protein, as detected by immunoblotting with respective antibodies, with GAPDH as loading control.

For the next series, the target named is T2, wild type A3F (Homo sapiens, UniProt Q8IUX4).
T2 construct: expressed in transfected cells; host or cells: 293T, transient transfection
The series is described as above. It counts as cell-based. The following applies: 293T transiently transfected, immunoblot (FIG. 7). How it is done:
as §2

The next series concerns the target T3, wild type A3G (Homo sapiens, UniProt Q9HC16).
T3 construct: expressed in transfected cells; host or cells: 293T, transient transfection
The description is as above. It counts as cell-based. The following applies: 293T transiently transfected, immunoblot (FIG. 7). How it is done:
as §2

For series [3], the system named is HIV NL4-3. Nature of the series: Infectivity of virions from 293T co-transfected with NL4-3 and A3G, TZM-bl cells. The following applies: co-transfection of 293T with HIV NL4-3 and A3G (FIG. 8). Format: cell-based, HIV-1. As for the experimental part:
(§3) FIG. 8. 293T cells were co-transfected with […] of NL4.3 plasmid DNA and 400 ng of either control or A3F/G DNAs, with or without NU52. Infectivity of equal amounts of resulting viruses (normalized by HIV-1 p24 antigen) were measured using TZM-bl cells. NU-52 treatment of producer cell reduced infectivity of virus produced from those cells.

Series [4] concerns HIV NL4-3. In words: Infectivity of virions from 293T co-transfected with NL4-3 and A3F, TZM-bl cells. The following applies: co-transfection of 293T with HIV NL4-3 and A3F (FIG. 8). It counts as cell-based, HIV-1. As for the experimental part: as §3
The subject of the next series is BC-1. In words: BC-1 primary effusion lymphoma cell proliferation. It counts as cell-based. The following applies: primary effusion lymphoma (PEL) cell line (FIG. 10). From the text: FIG. 10. A primary effusion lymphoma (PEL) cell line (BC-1, infected with both Kaposi's sarcoma herpesvirus and Epstein Barr Virus) is also killed by the listed compounds.

T1 sequence (Q9HC16 whole entry Y124A): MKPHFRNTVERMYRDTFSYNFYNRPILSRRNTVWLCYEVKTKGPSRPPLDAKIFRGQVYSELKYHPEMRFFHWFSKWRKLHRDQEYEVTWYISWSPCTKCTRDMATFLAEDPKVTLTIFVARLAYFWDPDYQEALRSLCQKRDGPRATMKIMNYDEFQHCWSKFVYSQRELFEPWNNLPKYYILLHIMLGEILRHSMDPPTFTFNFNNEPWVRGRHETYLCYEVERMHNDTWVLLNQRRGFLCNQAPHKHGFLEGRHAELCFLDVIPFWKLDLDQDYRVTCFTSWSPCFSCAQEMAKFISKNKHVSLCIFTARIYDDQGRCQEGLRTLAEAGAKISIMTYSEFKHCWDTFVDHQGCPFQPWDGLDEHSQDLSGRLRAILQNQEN
T2 sequence (Q8IUX4 whole entry): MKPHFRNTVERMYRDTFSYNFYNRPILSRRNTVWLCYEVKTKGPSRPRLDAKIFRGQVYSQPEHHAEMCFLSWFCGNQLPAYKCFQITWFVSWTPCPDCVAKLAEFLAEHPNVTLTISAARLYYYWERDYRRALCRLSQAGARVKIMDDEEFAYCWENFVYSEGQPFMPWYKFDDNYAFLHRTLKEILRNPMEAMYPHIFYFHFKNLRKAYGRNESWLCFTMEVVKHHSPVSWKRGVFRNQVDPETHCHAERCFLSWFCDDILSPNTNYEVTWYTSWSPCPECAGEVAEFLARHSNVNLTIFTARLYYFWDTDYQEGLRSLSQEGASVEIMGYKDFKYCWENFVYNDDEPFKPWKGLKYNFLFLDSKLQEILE
T3 sequence (Q9HC16 whole entry): as the sequence (Q9HC16 whole entry Y124A) above, with A124Y counted along it

With `COc1ccc(C(=O)Nc2ccc(Cl)c(Cl)c2)cc1NC(=O)C(C)C` [NU-52], the “Cytotoxicity: Cell Death at” value in the series with 293T cells is given as “Cell Death at 30 μM”. For the same compound, the activity at 10 µM in the series with Wild-type HIV-1 [1] and in the series on Wild-type HIV-1 [2] was 57% throughout. The “expression of mutant Y124A A3G” value at mutant Y124A A3G is listed as “increased”. Moreover, on wild type A3F, the “expression of wild type A3F” value is “increased”. The “expression of wild type A3G” value at wild type A3G is “increased”. For the same compound, the infectivity of virions result in the series on HIV NL4-3 [3] and in the series on HIV NL4-3 [4] was “decreased infectivity” each time. The BC-1 cell proliferation result with BC-1 is “inhibit BC-1 cell proliferation”.

In the case of `COc1ccc(C(=O)Nc2ccc(Cl)c(Cl)c2)cc1NC(=O)C1CCC1` [NU-302], the activity at 10 µM with Wild-type HIV-1 [1] came out at 60%; in the series on Wild-type HIV-1 [2], 58%. For the same compound, the BC-1 cell proliferation entry with BC-1 was “inhibit BC-1 cell proliferation”.

For `COc1ccc(C(=O)Nc2ccc(Cl)c(Cl)c2)cc1NC(=O)CC1CC1` [NU-466], the results for the activity at 10 µM with Wild-type HIV-1 [1] and in the series with Wild-type HIV-1 [2] were 72% and 59%, respectively. The BC-1 cell proliferation result in the series on BC-1 is given as “inhibit BC-1 cell proliferation”.
